Results on one molecule are retold here after patent publication US20050282814A1, “Vasculostatic agents and methods of use thereof” (TargeGen, Inc., priority 2002, published 2005).

Where a name gives a salt, the structure may show the parent alone.

Test [1] relates to Lewis lung carcinoma cells. The test is described as follows: Lewis lung carcinoma lung metastases model, alone or with doxorubicin. The class given is in vivo, Balb/C mice. The settings on record: I.P. every 3 days for 3 cycles. The method, then:
(§1) Syngeneic Lewis lung carcinoma cells were injected I.V. in order to establish lung metastases in Balb/C mice. Beginning 10 days after cells were injected, doxorubicin (3 mg/kg) and/or 6,7-bis(4-hydroxyphenyl)-pteridin-4-ylamine, sulfate salt (various doses as shown) was given I.P. every 3 days for 3 cycles. Animals were sacrificed at day 20, lungs were collected, and weighed. Net tumor burden is the weight of tumor-bearing lungs minus the average weight of normal control lungs. N=5/group, p<0.02.
as §1, with “The following experiments show the use of vasculostatic agents of the invention alone and in combination with chemotherapeutic agents for treatment of cancer. […] In the experiment shown in FIG. 2, syngeneic” for “Syngeneic”, “mgikg)” for “mg/kg)”, “salt, (compound A—various” for “salt (various”

Test [2] has as its system CT-26 Colon carcinoma cells. The test is described as follows: CT-26 colon carcinoma lung metastases model, alone or with doxorubicin or docetaxel. The class given is in vivo, Balb/C mice. To be noted: CT-26 lung metastases; I.P. every 3 days for 3 cycles; day 20. On the procedure:
FIG. 3 illustrates the effect of compounds administered in conjunction with doxorubicin in an in vivo model of metastatic colon cancer (CT-26 adenocarcinoma). Syngeneic CT-26 Colon carcinoma cells were injected I.V. in order to establish lung metastases in Balb/C mice. Beginning 10 days after cells were injected, indicated test agents were given I.P. every 3 days for 3 cycles. Animals were sacrificed at day 20, lungs were collected, and weighed. Net tumor burden is the weight of tumor-bearing lungs minus the average weight of normal control lungs. N=5/group, p<0.02. In these graphs, compound A is 6,7-bis(4-hydroxyphenyl)-pteridin-4-ylamine sulfate salt, and compound B is 6,7-diphenyl-pteridine-2,4-diamine.
FIG. 4 illustrates the effects of compounds of the present invention for co-drug therapy with Taxotere as described herein. Syngeneic CT-26 Colon carcinoma cells were used in order to establish lung metastases in Balb/C mice as described for FIG. 3. 6,7-bis(4-hydroxyphenyl)-pteridin-4-ylamine, sulfate salt (compound A) and 6,7-diphenyl-pteridine-2,4-diamine (compound B) from FIG. 1 are shown in FIG. 4.
FIG. 6 illustrates the effect of compounds administered in conjunction with docetaxel in the in vivo model of metastatic colon cancer (CT-26 adenocarcinoma) described for FIG. 4. N=5/group, p<0.02. […]

`Nc1ncnc2nc(-c3ccc(O)cc3)c(-c3ccc(O)cc3)nc12` [compound A, 6,7-bis(4-hydroxyphenyl)-pteridin-4-ylamine sulfate salt]: the “reduction of tumor burden as a stand alone agent” value in test [1] (lungs weighed at day 20) was 25%. In addition, the “reduction of tumor burden in combination with doxorubicin” value in test [1] (doxorubicin 3 mg/kg, day 20) was “greater than 90%”. For the same molecule, in test [2], the “reduction of tumor burden in combination with docetaxel” value is reported as “greater than 80%” and the “reduction of tumor burden in combination with doxorubicin” value is given as “greater than 60%”.
